From publication PMC10817531, “Chlorinated Enyne Fatty Acid Amides from a Marine Cyanobacterium: Discovery of Taveuniamides L-M and Pharmacological Characterization of Taveuniamide F as a GPCR Antagonist with CNR1 Selectivity” (Marine Drugs, 2023)

Key:
Experiment in all cases: PathHunter β-arrestin GpcrMAX assay
Type in all cases: cell-based
[1] = biological target: T1, ADCYAP1R1 (Homo sapiens, UniProt P41586)
T1 construct: purchased DiscoveRx (Eurofins) gpcrMAX PathHunter β-arrestin panel
Experimental: (§1) GpcrMAX panel biosensor assays were used to characterize taveuniamide F (4, 20 µM) (agonist and antagonist mode). The experiments were carried out by DiscoveRx Corporation (Fremont, CA, USA) as described before, using PathHunter β-arrestin enzyme fragment complementation (EFC) technology.

[2] = biological target: T2, ADORA3 (Homo sapiens, UniProt P0DMS8)
T2 construct: purchased DiscoveRx (Eurofins) gpcrMAX PathHunter β-arrestin panel
Experimental: as §1

[3] = biological target: T3, ADRA2A (Homo sapiens, UniProt P08913)
T3 construct: purchased DiscoveRx (Eurofins) gpcrMAX PathHunter β-arrestin panel
Experimental: as §1

[4] = biological target: T4, ADRA2B (Homo sapiens, UniProt P18089)
T4 construct: purchased DiscoveRx (Eurofins) gpcrMAX PathHunter β-arrestin panel
Experimental: as §1

[5] = biological target: T5, ADRB1 (Homo sapiens, UniProt P08588)
T5 construct: purchased DiscoveRx (Eurofins) gpcrMAX PathHunter β-arrestin panel
Experimental: as §1

[6] = biological target: AVPR1B (Homo sapiens, UniProt P47901)
Experimental: as §1

[7] = biological target: BDKRB1 (Homo sapiens, UniProt P46663)
Experimental: as §1

[8] = biological target: CALCR-RAMP3 (Homo sapiens, UniProt O60896+P30988)
Experimental: as §1

[9] = biological target: T6, CCR1 (Homo sapiens, UniProt P32246)
T6 construct: purchased DiscoveRx (Eurofins) gpcrMAX PathHunter β-arrestin panel
Experimental: as §1

[10] = biological target: T7, CCR5 (Homo sapiens, UniProt P51681)
T7 construct: purchased DiscoveRx (Eurofins) gpcrMAX PathHunter β-arrestin panel
Experimental: as §1

[11] = biological target: T8, CCR6 (Homo sapiens, UniProt P51684)
T8 construct: purchased DiscoveRx (Eurofins) gpcrMAX PathHunter β-arrestin panel
Experimental: as §1

[12] = biological target: T9, CHRM2 (Homo sapiens, UniProt P08172)
T9 construct: purchased DiscoveRx (Eurofins) gpcrMAX PathHunter β-arrestin panel
Experimental: as §1

[13] = biological target: T10, CRHR1 (Homo sapiens, UniProt P34998)
T10 construct: purchased DiscoveRx (Eurofins) gpcrMAX PathHunter β-arrestin panel
Experimental: as §1

[14] = biological target: T11, CXCR3 (Homo sapiens, UniProt P49682)
T11 construct: purchased DiscoveRx (Eurofins) gpcrMAX PathHunter β-arrestin panel
Experimental: as §1

[15] = biological target: T12, CXCR6 (Homo sapiens, UniProt O00574)
T12 construct: purchased DiscoveRx (Eurofins) gpcrMAX PathHunter β-arrestin panel
Experimental: as §1

[16] = biological target: T13, DRD1 (Homo sapiens, UniProt P21728)
T13 construct: purchased DiscoveRx (Eurofins) gpcrMAX PathHunter β-arrestin panel
Experimental: as §1

[17] = biological target: T14, DRD2L (Homo sapiens, UniProt P14416)
T14 construct: purchased DiscoveRx (Eurofins) gpcrMAX PathHunter β-arrestin panel
Experimental: as §1

[18] = biological target: T15, EDG3 (Homo sapiens, UniProt Q99500)
T15 construct: purchased DiscoveRx (Eurofins) gpcrMAX PathHunter β-arrestin panel
Experimental: as §1

[19] = biological target: T16, EDG7 (Homo sapiens, UniProt Q9UBY5)
T16 construct: purchased DiscoveRx (Eurofins) gpcrMAX PathHunter β-arrestin panel
Experimental: as §1

[20] = biological target: T17, F2RL1 (Homo sapiens, UniProt P55085)
T17 construct: purchased DiscoveRx (Eurofins) gpcrMAX PathHunter β-arrestin panel
Experimental: as §1

[21] = biological target: T18, GALR1 (Homo sapiens, UniProt P47211)
T18 construct: purchased DiscoveRx (Eurofins) gpcrMAX PathHunter β-arrestin panel
Experimental: as §1

[22] = biological target: T19, GALR2 (Homo sapiens, UniProt O43603)
T19 construct: purchased DiscoveRx (Eurofins) gpcrMAX PathHunter β-arrestin panel
Experimental: as §1

[23] = biological target: T20, GHSR (Homo sapiens, UniProt Q92847)
T20 construct: purchased DiscoveRx (Eurofins) gpcrMAX PathHunter β-arrestin panel
Experimental: as §1

[24] = biological target: T21, GPR1 (Homo sapiens, UniProt P46091)
T21 construct: purchased DiscoveRx (Eurofins) gpcrMAX PathHunter β-arrestin panel
Experimental: as §1

[25] = biological target: T22, GRPR (Homo sapiens, UniProt P30550)
T22 construct: purchased DiscoveRx (Eurofins) gpcrMAX PathHunter β-arrestin panel
Experimental: as §1

[26] = biological target: T23, HTR5A (Homo sapiens, UniProt P47898)
T23 construct: purchased DiscoveRx (Eurofins) gpcrMAX PathHunter β-arrestin panel
Experimental: as §1

[27] = biological target: T24, LHCGR (Homo sapiens, UniProt P22888)
T24 construct: purchased DiscoveRx (Eurofins) gpcrMAX PathHunter β-arrestin panel
Experimental: as §1

[28] = biological target: T25, LTB4R (Homo sapiens, UniProt Q15722)
T25 construct: purchased DiscoveRx (Eurofins) gpcrMAX PathHunter β-arrestin panel
Experimental: as §1

[29] = biological target: T26, MCHR1 (Homo sapiens, UniProt Q99705)
T26 construct: purchased DiscoveRx (Eurofins) gpcrMAX PathHunter β-arrestin panel
Experimental: as §1

[30] = biological target: T27, MLNR (Homo sapiens, UniProt O43193)
T27 construct: purchased DiscoveRx (Eurofins) gpcrMAX PathHunter β-arrestin panel
Experimental: as §1

[31] = biological target: T28, MRGPRX2 (Homo sapiens, UniProt Q96LB1)
T28 construct: purchased DiscoveRx (Eurofins) gpcrMAX PathHunter β-arrestin panel
Experimental: as §1

[32] = biological target: T29, NMU1R (Homo sapiens, UniProt Q9HB89)
T29 construct: purchased DiscoveRx (Eurofins) gpcrMAX PathHunter β-arrestin panel
Experimental: as §1

[33] = biological target: T30, NPFFR1 (Homo sapiens, UniProt Q9GZQ6)
T30 construct: purchased DiscoveRx (Eurofins) gpcrMAX PathHunter β-arrestin panel
Experimental: as §1

[34] = biological target: T31, NPY2R (Homo sapiens, UniProt P49146)
T31 construct: purchased DiscoveRx (Eurofins) gpcrMAX PathHunter β-arrestin panel
Experimental: as §1

[35] = biological target: T32, OPRD1 (Homo sapiens, UniProt P41143)
T32 construct: purchased DiscoveRx (Eurofins) gpcrMAX PathHunter β-arrestin panel
Experimental: as §1

[36] = biological target: T33, P2RY1 (Homo sapiens, UniProt P47900)
T33 construct: purchased DiscoveRx (Eurofins) gpcrMAX PathHunter β-arrestin panel
Experimental: as §1

[37] = biological target: T34, P2RY6 (Homo sapiens, UniProt Q15077)
T34 construct: purchased DiscoveRx (Eurofins) gpcrMAX PathHunter β-arrestin panel
Experimental: as §1

[38] = biological target: T35, PTGER2 (Homo sapiens, UniProt P43116)
T35 construct: purchased DiscoveRx (Eurofins) gpcrMAX PathHunter β-arrestin panel
Experimental: as §1

[39] = biological target: T36, PTGIR (Homo sapiens, UniProt P43119)
T36 construct: purchased DiscoveRx (Eurofins) gpcrMAX PathHunter β-arrestin panel
Experimental: as §1

[40] = biological target: T37, SSTR1 (Homo sapiens, UniProt P30872)
T37 construct: purchased DiscoveRx (Eurofins) gpcrMAX PathHunter β-arrestin panel
Experimental: as §1

[41] = biological target: T38, SSTR2 (Homo sapiens, UniProt P30874)
T38 construct: purchased DiscoveRx (Eurofins) gpcrMAX PathHunter β-arrestin panel
Experimental: as §1

[42] = biological target: T39, SSTR3 (Homo sapiens, UniProt P32745)
T39 construct: purchased DiscoveRx (Eurofins) gpcrMAX PathHunter β-arrestin panel
Experimental: as §1

[43] = biological target: T40, VIPR2 (Homo sapiens, UniProt P41587)
T40 construct: purchased DiscoveRx (Eurofins) gpcrMAX PathHunter β-arrestin panel
Experimental: as §1

AVPR1B, sequence (P47901 whole entry): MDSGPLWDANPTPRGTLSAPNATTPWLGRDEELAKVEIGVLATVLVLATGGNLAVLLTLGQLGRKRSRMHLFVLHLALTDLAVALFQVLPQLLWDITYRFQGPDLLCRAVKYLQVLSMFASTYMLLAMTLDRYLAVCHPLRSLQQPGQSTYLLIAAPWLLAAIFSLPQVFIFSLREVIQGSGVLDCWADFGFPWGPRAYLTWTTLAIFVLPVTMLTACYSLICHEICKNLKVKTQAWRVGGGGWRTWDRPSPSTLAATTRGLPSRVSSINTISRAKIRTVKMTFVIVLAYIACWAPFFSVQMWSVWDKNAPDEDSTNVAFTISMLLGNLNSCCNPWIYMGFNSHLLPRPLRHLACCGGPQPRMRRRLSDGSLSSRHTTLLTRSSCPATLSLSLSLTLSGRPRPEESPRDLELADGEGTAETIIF
T29 sequence (Q9HB89 whole entry): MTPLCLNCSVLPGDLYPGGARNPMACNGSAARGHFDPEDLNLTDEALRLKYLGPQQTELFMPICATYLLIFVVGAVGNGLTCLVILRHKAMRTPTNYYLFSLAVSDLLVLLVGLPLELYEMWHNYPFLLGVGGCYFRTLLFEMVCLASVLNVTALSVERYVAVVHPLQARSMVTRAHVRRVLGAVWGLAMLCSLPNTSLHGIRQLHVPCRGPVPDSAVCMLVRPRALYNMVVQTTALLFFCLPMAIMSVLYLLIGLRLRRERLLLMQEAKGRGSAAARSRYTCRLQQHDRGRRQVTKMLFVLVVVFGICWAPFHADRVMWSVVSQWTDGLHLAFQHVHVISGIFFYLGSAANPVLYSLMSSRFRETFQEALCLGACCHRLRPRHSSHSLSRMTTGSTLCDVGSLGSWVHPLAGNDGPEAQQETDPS
T23 sequence (P47898 whole entry): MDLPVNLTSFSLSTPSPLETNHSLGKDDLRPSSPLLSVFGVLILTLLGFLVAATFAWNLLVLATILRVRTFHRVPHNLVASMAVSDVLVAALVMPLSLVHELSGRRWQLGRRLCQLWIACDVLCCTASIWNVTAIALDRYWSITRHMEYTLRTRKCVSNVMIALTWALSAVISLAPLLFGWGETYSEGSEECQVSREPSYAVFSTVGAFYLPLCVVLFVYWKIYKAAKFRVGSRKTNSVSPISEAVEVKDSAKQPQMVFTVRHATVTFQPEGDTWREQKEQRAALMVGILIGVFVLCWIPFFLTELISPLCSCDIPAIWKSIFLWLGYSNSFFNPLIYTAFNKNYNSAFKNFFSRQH
T26 sequence (Q99705 whole entry): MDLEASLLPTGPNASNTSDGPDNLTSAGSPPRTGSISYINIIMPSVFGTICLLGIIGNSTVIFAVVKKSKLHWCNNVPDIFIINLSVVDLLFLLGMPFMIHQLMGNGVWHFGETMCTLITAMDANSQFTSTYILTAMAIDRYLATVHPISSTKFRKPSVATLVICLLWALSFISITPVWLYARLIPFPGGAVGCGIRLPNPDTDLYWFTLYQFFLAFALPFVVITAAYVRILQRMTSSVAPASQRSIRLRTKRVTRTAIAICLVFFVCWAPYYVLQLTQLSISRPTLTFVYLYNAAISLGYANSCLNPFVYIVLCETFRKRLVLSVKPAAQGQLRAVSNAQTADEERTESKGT
T40 sequence (P41587 24-438): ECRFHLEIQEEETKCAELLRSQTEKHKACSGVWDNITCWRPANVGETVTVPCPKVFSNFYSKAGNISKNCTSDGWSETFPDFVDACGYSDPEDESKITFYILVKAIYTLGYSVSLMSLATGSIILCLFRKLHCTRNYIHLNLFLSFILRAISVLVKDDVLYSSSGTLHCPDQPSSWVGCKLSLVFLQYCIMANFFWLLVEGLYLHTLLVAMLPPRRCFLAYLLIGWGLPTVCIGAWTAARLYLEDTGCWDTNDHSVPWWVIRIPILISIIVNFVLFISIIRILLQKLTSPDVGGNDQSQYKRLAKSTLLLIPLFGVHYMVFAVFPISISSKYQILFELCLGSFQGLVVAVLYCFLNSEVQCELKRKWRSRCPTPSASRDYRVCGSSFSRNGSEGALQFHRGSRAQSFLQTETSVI
T31 sequence (P49146 whole entry): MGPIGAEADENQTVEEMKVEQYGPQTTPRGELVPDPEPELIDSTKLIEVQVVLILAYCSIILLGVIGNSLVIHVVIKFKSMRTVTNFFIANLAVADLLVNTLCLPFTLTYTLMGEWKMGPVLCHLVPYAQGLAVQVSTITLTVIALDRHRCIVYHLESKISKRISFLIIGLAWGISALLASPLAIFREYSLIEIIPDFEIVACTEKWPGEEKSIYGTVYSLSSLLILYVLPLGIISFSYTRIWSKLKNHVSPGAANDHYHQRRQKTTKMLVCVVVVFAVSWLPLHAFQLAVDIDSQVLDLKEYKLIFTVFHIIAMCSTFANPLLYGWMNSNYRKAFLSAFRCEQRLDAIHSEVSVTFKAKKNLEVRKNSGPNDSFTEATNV
T36 sequence (P43119 whole entry): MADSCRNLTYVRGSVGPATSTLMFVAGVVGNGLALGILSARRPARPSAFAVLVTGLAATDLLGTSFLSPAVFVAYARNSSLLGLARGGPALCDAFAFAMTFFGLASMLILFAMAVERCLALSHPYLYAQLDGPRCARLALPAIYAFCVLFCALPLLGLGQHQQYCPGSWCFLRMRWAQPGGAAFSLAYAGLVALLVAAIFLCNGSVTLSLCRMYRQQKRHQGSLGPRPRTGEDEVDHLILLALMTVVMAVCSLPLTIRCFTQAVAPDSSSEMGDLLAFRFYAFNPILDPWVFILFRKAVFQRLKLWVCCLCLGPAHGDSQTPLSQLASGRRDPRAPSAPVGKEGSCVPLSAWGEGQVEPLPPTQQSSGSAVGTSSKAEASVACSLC
T18 sequence (P47211 whole entry): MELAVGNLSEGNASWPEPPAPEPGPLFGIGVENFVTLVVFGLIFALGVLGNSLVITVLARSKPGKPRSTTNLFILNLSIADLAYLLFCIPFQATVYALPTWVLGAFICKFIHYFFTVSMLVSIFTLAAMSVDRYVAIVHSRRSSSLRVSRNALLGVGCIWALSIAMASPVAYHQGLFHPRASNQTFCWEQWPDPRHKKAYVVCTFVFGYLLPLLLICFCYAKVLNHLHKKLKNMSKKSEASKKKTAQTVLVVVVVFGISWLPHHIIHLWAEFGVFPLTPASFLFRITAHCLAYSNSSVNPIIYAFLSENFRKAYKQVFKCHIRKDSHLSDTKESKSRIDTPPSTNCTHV
T20 sequence (Q92847 whole entry): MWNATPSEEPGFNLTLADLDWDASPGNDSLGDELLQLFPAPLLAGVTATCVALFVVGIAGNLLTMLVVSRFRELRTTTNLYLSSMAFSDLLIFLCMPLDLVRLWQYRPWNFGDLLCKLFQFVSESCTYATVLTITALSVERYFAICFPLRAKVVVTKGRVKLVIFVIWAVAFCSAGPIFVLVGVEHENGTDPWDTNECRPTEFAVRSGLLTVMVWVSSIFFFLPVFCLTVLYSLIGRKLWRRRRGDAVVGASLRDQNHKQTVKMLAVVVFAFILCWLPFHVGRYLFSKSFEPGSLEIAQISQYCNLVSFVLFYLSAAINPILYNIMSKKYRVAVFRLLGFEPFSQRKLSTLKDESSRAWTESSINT
T19 sequence (O43603 whole entry): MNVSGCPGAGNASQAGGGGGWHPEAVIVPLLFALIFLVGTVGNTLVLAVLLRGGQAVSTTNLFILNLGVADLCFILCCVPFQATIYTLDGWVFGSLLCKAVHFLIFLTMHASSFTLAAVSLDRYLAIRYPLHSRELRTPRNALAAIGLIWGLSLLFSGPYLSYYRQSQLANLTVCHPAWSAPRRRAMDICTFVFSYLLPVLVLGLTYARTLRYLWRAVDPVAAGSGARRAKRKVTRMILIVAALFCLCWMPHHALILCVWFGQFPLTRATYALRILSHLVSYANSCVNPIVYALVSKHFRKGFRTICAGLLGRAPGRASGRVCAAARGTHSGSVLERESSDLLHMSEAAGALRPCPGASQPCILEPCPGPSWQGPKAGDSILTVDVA
T14 sequence (P14416 whole entry): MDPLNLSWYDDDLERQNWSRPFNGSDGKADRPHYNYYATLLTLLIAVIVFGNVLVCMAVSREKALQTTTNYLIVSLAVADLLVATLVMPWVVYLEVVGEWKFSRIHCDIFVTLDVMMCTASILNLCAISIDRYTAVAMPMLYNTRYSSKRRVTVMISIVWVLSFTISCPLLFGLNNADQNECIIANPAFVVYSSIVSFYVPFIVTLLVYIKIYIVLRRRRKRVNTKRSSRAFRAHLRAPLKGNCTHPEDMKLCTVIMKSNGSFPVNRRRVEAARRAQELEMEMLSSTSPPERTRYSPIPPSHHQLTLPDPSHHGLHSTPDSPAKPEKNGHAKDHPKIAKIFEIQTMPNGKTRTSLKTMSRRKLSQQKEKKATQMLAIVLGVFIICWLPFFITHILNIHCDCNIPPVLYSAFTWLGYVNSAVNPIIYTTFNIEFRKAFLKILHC
T33 sequence (P47900 whole entry): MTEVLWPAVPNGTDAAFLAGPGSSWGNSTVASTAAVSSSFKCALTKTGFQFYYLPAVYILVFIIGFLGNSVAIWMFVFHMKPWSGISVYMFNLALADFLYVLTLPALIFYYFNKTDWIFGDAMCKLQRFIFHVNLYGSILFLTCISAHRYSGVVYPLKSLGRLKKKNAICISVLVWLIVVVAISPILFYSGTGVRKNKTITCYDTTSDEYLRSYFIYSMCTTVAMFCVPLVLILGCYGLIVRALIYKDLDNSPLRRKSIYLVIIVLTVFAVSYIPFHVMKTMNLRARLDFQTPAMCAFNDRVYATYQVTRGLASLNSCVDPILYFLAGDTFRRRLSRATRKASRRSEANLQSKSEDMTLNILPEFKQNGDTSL

Work on CC(=O)N[C@@H](CCCC#C/C=C/Cl)CCCCCCC(Cl)Cl [Compound 4, taveuniamide F] yielded an inhibition at 20 µM [1] of 16.5%, an inhibition at 20 µM [2] of 1% and an inhibition at 20 µM [3] of 42.3%. The inhibition at 20 µM [4] was 10.7%, the inhibition at 20 µM [5] was 52.7% and the inhibition at 20 µM [6] was 57.5%. For the same molecule, the inhibition at 20 µM [7] was 26.2%, the inhibition at 20 µM [8] was 3.1% and the inhibition at 20 µM [9] was 65.7%. It also gave an inhibition at 20 µM [10] of 14.7%, an inhibition at 20 µM [11] of 58.2% and an inhibition at 20 µM [12] of 36.7%. For the same molecule, the inhibition at 20 µM [13] was -2.4%, the inhibition at 20 µM [14] was 4.6% and the inhibition at 20 µM [15] was 33.1%. It also gave an inhibition at 20 µM [16] of 18.6%, an inhibition at 20 µM [17] of 3.8% and an inhibition at 20 µM [18] of 21%. It also gave an inhibition at 20 µM [19] of 38.6%, an inhibition at 20 µM [20] of -6.7% and an inhibition at 20 µM [21] of 5.7%. For the same molecule, the inhibition at 20 µM [22] was 23.1%, the inhibition at 20 µM [23] was 30.8% and the inhibition at 20 µM [24] was 18.7%. The inhibition at 20 µM [25] was 6.2%, the inhibition at 20 µM [26] was 45.6% and the inhibition at 20 µM [27] was 56.3%. It also gave an inhibition at 20 µM [28] of 4.6%, an inhibition at 20 µM [29] of 16.3% and an inhibition at 20 µM [30] of 53.1%. For the same molecule, the inhibition at 20 µM [31] was 64.7%, the inhibition at 20 µM [32] was 30.1% and the inhibition at 20 µM [33] was 27.9%. It also gave an inhibition at 20 µM [34] of 0.5%, an inhibition at 20 µM [35] of 7.2% and an inhibition at 20 µM [36] of 5.5%. The inhibition at 20 µM [37] was 1.2%, the inhibition at 20 µM [38] was 4.4% and the inhibition at 20 µM [39] was 60.2%. For the same molecule, the inhibition at 20 µM [40] was 38.2%, the inhibition at 20 µM [41] was -0.1% and the inhibition at 20 µM [42] was 41.3%. It also gave an inhibition at 20 µM [43] of 4.6%.
